One test relates to E. coli (ATCC 25922). The test can be described thus: Minimal Inhibitory Concentration (MIC) assay, E. coli. It is filed as cell-based. The settings on record: Escherichia coli, ATCC25922; E. coli ATCC 25922, CAMHB, 20 hours at 35° C.; read-out: MIC E. coli ATCC 25922. In short, it runs like this:
(§1)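 Broth microdilution in cation-adjusted Mueller Hinton broth, inoculum 5×10^5 CFU/mL, compounds 2-fold serially diluted from 10 mM DMSO stocks. Plates incubated 20 hours at 35° C in ambient air; MIC (μg/mL) is the lowest concentration preventing visible growth.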

Test [1] deals with Escherichia coli LpxH (UDP-2,3-diacylglucosamine hydrolase) (Escherichia coli (strain K12), UniProt P43341). The test can be described thus: 50% Inhibitory Concentration (IC50) to LpxH, UMP/CMP-Glo Glycosyltransferase Assay kit. Type of test: biochemical. In short, it runs like this:
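LpxH hydrolysis of UDP-2,3-diacylglucosamine to lipid X and UMP; UMP produced is converted to ATP and quantified by luciferase luminescence (UMP/CMP-Glo). Inhibition taken from reduced light output.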

Test [2] concerns K. pneumonia (ATCC 43816). The test can be described thus: Minimal Inhibitory Concentration (MIC) assay, K. pneumonia. It is filed as cell-based. The settings on record: Klebsiella pneumoniae; K. pneumoniae ATCC43816, CAMHB, 20 hours at 35° C.; read-out: MIC K. pneumoniae ATCC43816. In short, it runs like this:
as §1

In brackets after ≈: the same amount, converted by molar mass.

This is an account of results in patent US20250011300A1, “PIPERAZINYLSULFONYLARYL COMPOUNDS FOR TREATMENT OF BACTERIAL INFECTIONS” (Hoffmann-La Roche Inc., priority 2021, published 2025).

Chain of Escherichia coli LpxH (UDP-2,3-diacylglucosamine hydrolase) (P43341 whole entry): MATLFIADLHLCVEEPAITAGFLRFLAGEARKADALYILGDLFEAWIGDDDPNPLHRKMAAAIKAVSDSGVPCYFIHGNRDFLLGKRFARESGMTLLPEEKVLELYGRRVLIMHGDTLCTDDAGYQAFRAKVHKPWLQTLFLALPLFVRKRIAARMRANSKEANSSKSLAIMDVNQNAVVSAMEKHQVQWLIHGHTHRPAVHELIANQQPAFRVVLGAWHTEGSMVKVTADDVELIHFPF

Usually MIC stands for the least concentration at which growth counts as inhibited. As a reminder, the IC50 is the concentration at which inhibition is half-maximal. Higher therefore signals weaker potency. With `NC1CC(=O)N(c2ccc(S(=O)(=O)N3CCN(c4cc(C(F)(F)c5ccccn5)cc(Cl)n4)CC3)cc2)C1` (stereo not drawn) [Example 89, 4-Amino-1-[4-[4-[6-chloro-4-[difluoro(2-pyridyl)methyl]-2-pyridyl]piperazin-1-yl]sulfonylphenyl] pyrrolidin-2-one], the minimal inhibitory concentration (MIC) (in the test on E. coli (ATCC 25922); in test [2]) was 0.88 µg/mL (≈ 1.56 µM) throughout. Moreover, half-maximal inhibition in test [1] (IC50) required 0.0604 µM.

In the case of `NC1CC(=O)N(c2ccc(S(=O)(=O)N3CCN(c4cc(C(F)(F)c5cccnc5)cc(Cl)n4)CC3)cc2)C1` (stereo not drawn) [Example 90, 4-Amino-1-[4-[4-[6-chloro-4-[difluoro(3-pyridyl)methyl]-2-pyridyl]piperazin-1-yl]sulfonylphenyl]pyrrolidin-2-one], the minimal inhibitory concentration (MIC) (in the test with E. coli (ATCC 25922); in test [2]) was 1.76 µg/mL (≈ 3.13 µM) in each case. The IC50 in test [1] was 0.0124 µM.

With `NC1CC(=O)N(c2ccc(S(=O)(=O)N3CCN(c4cc(C(F)(F)c5ccncc5)cc(Cl)n4)CC3)cc2)C1` (stereo not drawn) [Example 91, 4-Amino-1-[4-[4-[6-chloro-4-[difluoro(4-pyridyl)methyl]-2-pyridyl]piperazin-1-yl]sulfonylphenyl]pyrrolidin-2-one], the MIC (in the test with E. coli (ATCC 25922); in test [2]) was 1.76 µg/mL (≈ 3.13 µM) throughout. The compound also had an IC50 in test [1] of 0.0107 µM.

In the case of `NC1CC(=O)N(c2ccc(S(=O)(=O)N3CCN(c4cc(C(F)(F)c5cncnc5)cc(Cl)n4)CC3)cc2)C1` (stereo not drawn) [Example 92, 4-Amino-1-[4-[4-[6-chloro-4-[difluoro(pyrimidin-5-yl)methyl]-2-pyridyl]piperazin-1-yl]sulfonylphenyl]pyrrolidin-2-one], the minimal inhibitory concentration (MIC) with E. coli (ATCC 25922) amounted to 2.12 µg/mL (≈ 3.76 µM); in test [2], 4.24 µg/mL (≈ 7.52 µM). The compound also showed a 50% inhibitory concentration (IC50) in test [1] of 0.0957 µM.

For the compound `NC1CC(=O)N(c2ccc(S(=O)(=O)N3CCN(c4cc(C(F)(F)c5cnccn5)cc(Cl)n4)CC3)cc2)C1` (stereo not drawn) [Example 93, 4-Amino-1-[4-[4-[6-chloro-4-[difluoro(pyrazin-2-yl)methyl]-2-pyridyl]piperazin-1-yl]sulfonylphenyl]pyrrolidin-2-one], the MIC (in the test on E. coli (ATCC 25922); in test [2]) was 1.76 µg/mL (≈ 3.12 µM) throughout. In test [1], the IC50 is 0.0124 µM.

With `NC1CC(=O)N(c2ccc(S(=O)(=O)N3CCN(c4cc(C(F)(F)c5ncccn5)cc(Cl)n4)CC3)cc2)C1` (stereo not drawn) [Example 94, 4-Amino-1-[4-[4-[6-chloro-4-[difluoro(pyrimidin-2-yl)methyl]-2-pyridyl]piperazin-1-yl]sulfonylphenyl]pyrrolidin-2-one], the minimal inhibitory concentration (MIC) (in the test with E. coli (ATCC 25922); in test [2]) was 3.53 µg/mL (≈ 6.26 µM) each time. The same compound gave a concentration for half-maximal inhibition (IC50) in test [1] of 0.186 µM.

For the compound `NC1CC(=O)N(c2ccc(S(=O)(=O)N3CCN(c4cc(C(F)(F)C5CCOCC5)cc(Cl)n4)CC3)cc2)C1` (stereo not drawn) [Example 95, 4-Amino-1-[4-[4-[6-chloro-4-[difluoro(tetrahydropyran-4-yl)methyl]-2-pyridyl]piperazin-1-yl]sulfonylphenyl]pyrrolidin-2-one], the MIC (with E. coli (ATCC 25922); in test [2]) was 0.89 µg/mL (≈ 1.56 µM) throughout. The same compound showed a 50% inhibitory concentration (IC50) in test [1] of 0.0579 µM.

With `NC1CC(=O)N(c2ccc(S(=O)(=O)N3CCN(c4cc(C(F)(F)C5CCOC5)cc(Cl)n4)CC3)cc2)C1` (stereo not drawn) [Example 96, 4-Amino-1-[4-[4-[6-chloro-4-[difluoro(tetrahydrofuran-3-yl)methyl]-2-pyridyl]piperazin-1-yl]sulfonylphenyl]pyrrolidin-2-one], the MIC in the test on E. coli (ATCC 25922) stood at 3.48 µg/mL (≈ 6.26 µM); in test [2], 1.74 µg/mL (≈ 3.13 µM). For the same compound, half-maximal inhibition in test [1] (IC50) required 0.0036 µM.

As to `NC1CC(=O)N(c2ccc(S(=O)(=O)N3CCN(c4cc(C(F)(F)C5COC5)cc(Cl)n4)CC3)cc2)C1` (stereo not drawn) [Example 97, 4-Amino-1-[4-[4-[6-chloro-4-[difluoro(oxetan-3-yl)methyl]-2-pyridyl]piperazin-1-yl]sulfonylphenyl]pyrrolidin-2-one], the MIC in the test with E. coli (ATCC 25922) came out at 0.85 µg/mL (≈ 1.57 µM); in test [2], 1.27 µg/mL (≈ 2.34 µM). For the same compound, the IC50 in test [1] was 0.0886 µM.

Regarding `NC1CC(=O)N(c2ccc(S(=O)(=O)N3CCN(c4cc(C(F)(F)C5=CCOCC5)cc(Cl)n4)CC3)cc2)C1` (stereo not drawn) [Example 98, 4-Amino-1-[4-[4-[6-chloro-4-[3,6-dihydro-2H-pyran-4-yl(difluoro)methyl]-2-pyridyl]piperazin-1-yl]sulfonylphenyl]pyrrolidin-2-one], the MIC (with E. coli (ATCC 25922); in test [2]) was 0.89 µg/mL (≈ 1.57 µM) each time. For the same compound, in test [1], the half-maximal inhibitory concentration (IC50) is 0.0475 µM.

As for `NC1CC(=O)N(c2ccc(S(=O)(=O)N3CCN(c4cc(C(F)(F)C5CCCOC5)cc(Cl)n4)CC3)cc2)C1` (stereo not drawn) [Example 99, 4-Amino-1-[4-[4-[6-chloro-4-[difluoro(tetrahydropyran-3-yl)methyl]-2-pyridyl]piperazin-1-yl]sulfonylphenyl]pyrrolidin-2-one], the MIC amounted to 4.01 µg/mL (≈ 7.03 µM) in the test with E. coli (ATCC 25922) and 0.89 µg/mL (≈ 1.56 µM) in test [2]. The half-inhibitory concentration (IC50) in test [1] is below 0.00351 µM.

With `NC1CC(=O)N(c2ccc(S(=O)(=O)N3CCN(c4cc(C(F)(F)C5CC6CCC(C5)O6)cc(Cl)n4)CC3)cc2)C1` (stereo not drawn) [Example 100, 4-Amino-1-[4-[4-[6-chloro-4-[difluoro(8-oxabicyclo[3.2.1]octan-3-yl)methyl]-2-pyridyl]piperazin-1-yl]sulfonylphenyl]pyrrolidin-2-one], the MIC amounted to 1.86 µg/mL (≈ 3.12 µM) in the test with E. coli (ATCC 25922) and 0.93 µg/mL (≈ 1.56 µM) in test [2]. Also, the IC50 in test [1] was below 0.00336 µM.

As for `N[C@@H]1CC(=O)N(c2ccc(S(=O)(=O)N3CCN(c4cc(C(F)(F)C5C6COCC65)cc(Cl)n4)CC3)cc2)C1` (stereo partly drawn) [Example 101, (4R)-4-amino-1-[4-[4-[6-chloro-4-[difluoro(3-oxabicyclo[3.1.0]hexan-6-yl)methyl]-2-pyridyl]piperazin-1-yl]sulfonylphenyl]pyrrolidin-2-one], the MIC in the test on E. coli (ATCC 25922) worked out at 0.44 µg/mL (≈ 0.775 µM); in test [2] it was 0.89 µg/mL (≈ 1.57 µM). Besides, the IC50 in test [1] was 0.0968 µM.

For the compound `N[C@@H]1CC(=O)N(c2ccc(S(=O)(=O)N3CCN(c4cc(C(F)(F)[C@@H]5COCCO5)cc(Cl)n4)CC3)cc2)C1` [Example 102, (4R)-4-amino-1-[4-[4-[6-chloro-4-[[(2S)-1,4-dioxan-2-yl]-difluoro-methyl]-2-pyridyl]piperazin-1-yl]sulfonylphenyl]pyrrolidin-2-one], the minimum inhibitory concentration (MIC) (with E. coli (ATCC 25922); in test [2]) was 0.89 µg/mL (≈ 1.56 µM) in each case. The compound also had a concentration for half-maximal inhibition (IC50) in test [1] of 0.0105 µM.

On to `N[C@@H]1CC(=O)N(c2ccc(S(=O)(=O)N3CCN(c4cc(C(F)(F)[C@H]5COCCO5)cc(Cl)n4)CC3)cc2)C1` [Example 103, (4R)-4-amino-1-[4-[4-[6-chloro-4-[[(2R)-1,4-dioxan-2-yl]-difluoro-methyl]-2-pyridyl]piperazin-1-yl]sulfonylphenyl]pyrrolidin-2-one], for which the MIC (with E. coli (ATCC 25922); in test [2]) was 0.89 µg/mL (≈ 1.56 µM) in each case. Further, the half-inhibitory concentration (IC50) in test [1] was 0.0035 µM.

`N[C@@H]1CC(=O)N(c2ccc(S(=O)(=O)N3CCN(c4cc(C(F)(F)[C@@H]5CNCCO5)cc(Cl)n4)CC3)cc2)C1` [Example 104]: the figures for the MIC (in the test with E. coli (ATCC 25922); in test [2]) were 1.01 µg/mL (≈ 1.77 µM) and 2.01 µg/mL (≈ 3.52 µM), respectively. Also, the IC50 in test [1] is 0.00876 µM.

For `N[C@@H]1CC(=O)N(c2ccc(S(=O)(=O)N3CCN(c4cc(C(F)(F)[C@H]5CNCCO5)cc(Cl)n4)CC3)cc2)C1` [Example 105, (4R)-4-amino-1-[4-[4-[6-chloro-4-[difluoro-[(2R)-morpholin-2-yl]methyl]-2-pyridyl]piperazin-1-yl]sulfonylphenyl]pyrrolidin-2-one], the minimum inhibitory concentration (MIC) (in the test on E. coli (ATCC 25922); in test [2]) was 1.79 µg/mL (≈ 3.13 µM) throughout. In test [1], this compound had an IC50 of 0.00525 µM.

As to `N[C@@H]1CC(=O)N(c2ccc(S(=O)(=O)N3CCN(c4cc(C(F)(F)C5=CCNCC5)cc(Cl)n4)CC3)cc2)C1` [Example 106], the MIC (in the test with E. coli (ATCC 25922); in test [2]) was 1.77 µg/mL (≈ 3.12 µM) in each case. This compound also had an IC50 in test [1] of 0.199 µM.

Take `N[C@@H]1CC(=O)N(c2ccc(S(=O)(=O)N3CCN(c4cc(C(F)(F)[C@@H]5CCCNC5)cc(Cl)n4)CC3)cc2)C1` [Example 107, (4R)-4-amino-1-[4-[4-[6-chloro-4-[difluoro-[(3R)-3-piperidyl]methyl]-2-pyridyl]piperazin-1-yl]sulfonylphenyl]pyrrolidin-2-one]: the minimum inhibitory concentration (MIC) in the test with E. coli (ATCC 25922) came to 2.85 µg/mL (≈ 5.01 µM); in test [2] it was 5.7 µg/mL (≈ 10 µM). For the same compound, the IC50 in test [1] is 0.0193 µM.

As for `N[C@@H]1CC(=O)N(c2ccc(S(=O)(=O)N3CCN(c4cc(C(F)(F)[C@H]5CCCNC5)cc(Cl)n4)CC3)cc2)C1` [Example 108, (4R)-4-amino-1-[4-[4-[6-chloro-4-[difluoro-[(3S)-3-piperidyl]methyl]-2-pyridyl]piperazin-1-yl]sulfonylphenyl]pyrrolidin-2-one], the MIC (in the test on E. coli (ATCC 25922); in test [2]) was 4.98 µg/mL (≈ 8.75 µM) in each case. Besides, in test [1], half-maximal inhibition (IC50) required 0.0351 µM.

In the case of `N[C@@H]1CC(=O)N(c2ccc(S(=O)(=O)N3CCN(c4cc(C(F)(F)C5CNC5)cc(Cl)n4)CC3)cc2)C1` [Example 109, (4R)-4-amino-1-[4-[4-[4-[azetidin-3-yl(difluoro)methyl]-6-chloro-2-pyridyl]piperazin-1-yl]sulfonylphenyl]pyrrolidin-2-one], the MIC (in the test on E. coli (ATCC 25922); in test [2]) was 16.4 µg/mL (≈ 30.3 µM) in each case. Further, the IC50 in test [1] was 0.0684 µM.

In the case of `O=C1OC(CO)CN1c1ccc(S(=O)(=O)N2CCN(c3cc(C(F)(F)[C@@H]4CNCCO4)cc(Cl)n3)CC2)cc1` (stereo partly drawn) [Example 110, 3-[4-[4-[6-Chloro-4-[difluoro-[(2S)-morpholin-2-yl]methyl]-2-pyridyl]piperazin-1-yl]sulfonylphenyl]-5-(hydroxymethyl)oxazolidin-2-one], the minimal inhibitory concentration (MIC) (in the test with E. coli (ATCC 25922); in test [2]) was 0.99 µg/mL (≈ 1.68 µM) throughout. The compound also had a half-maximal inhibitory concentration (IC50) in test [1] of 0.0034 µM.
